Reference: patent US10328022B2, “Formulations and methods for vaginal delivery of antiprogestins” (REPROS THERAPEUTICS INC., priority 2012, dated 2019)

Key:
[1] = test system: New Zealand White rabbits; test: Cumulative vaginal mucous membrane irritancy, 10 daily intravaginal doses; type: in vivo, rabbit
Method: Pullulan capsules (Capsugel NPcaps®, size 0) comprising CDB-4124 were administered once daily for 10 consecutive days intravaginally to 10 healthy virgin female New Zealand White rabbits in order to determine the cumulative vaginal mucous membrane irritancy potential and to obtain plasma samples for pharmacokinetic analysis. Five rabbits were assigned to each of two groups, the first dosed with vehicle control (pullulan capsules with 0.5 ml PEG 1000 fill) introduced into the upper vaginal vault of each rabbit using a syringe applicator (Group 1), the second with CDB-4124 (pullulan capsules with 12 mg CDB-4124 in 0.5 ml PEG 1000)(Group 2). The external vaginal mucosa of each animal was examined for erythema, edema and discharge prior to the initial dose, immediately prior to each treatment and prior to sacrifice. All animals were examined for gross pathology.

[2] = test system: human females with uterine fibroids; test: Previous oral study of CDB-4124, 1, 3, 6, 9 and 12 mg for 10 weeks; type: in vivo
Method: (§1) In a previous oral study, doses of 1, 3, 6, 9 and 12 mg of CDB-4124 were administered for a period of 10 weeks. […] Cessation of menses directly correlates to efficacy of an oral dose in both uterine fibroids and endometriosis. […] Given the overall low exposure of the 12 mg dose, in those women that continued to menstruate, further improvements in reduction of symptoms are expected with longer exposure to the drug. In efficacy studies in which CDB-4124 was administered orally, women experienced a nearly 50% reduction in mean fibroid size at a 25 mg dose. When those women were then escalated to a 50 mg oral dose for an additional four months, fibroid size was reduced to approximately 25% of the initial volume. Based on the assessment of fibroid symptoms as scored by UFSQOL, women on oral CDB-4124 were, in general, symptom free.

[3] = test system: human females with uterine fibroids; test: Vaginal administration of pullulan capsules with 12 mg CDB-4124: menses and fibroid symptoms; type: in vivo
Method: (§2) Capsugel NPcaps® were filled with the excipient fill formulations described above with 12 mg CDB-4124 (telapristone acetate) and administered vaginally to human females with uterine fibroids once per day for a period of 2 weeks to determine the length of time required to reach steady state and overall systemic exposure of the parent compound (CDB-4124) and the primary metabolite (CDB-4453). The capsules were administered using a commercially available vaginal applicator modified by reversing the insert (see FIG. 5). The unmodified applicator comprises a barrel and plunger with the barrel having a relatively wide opening on one end and a relatively narrow opening on the other end. The applicator is designed such that the drug is placed in the end with the larger diameter opening (entrance end), the applicator is inserted into the vagina and the plunger is used to push the drug out the barrel and into the vagina. For insertion of the filled NPcaps, the shell end of the capsule (having a […] diameter) was placed into the narrow opening in the barrel, leaving the cap exposed. […] Pharmacokinetic data was then obtained from patients.
as §1

uterine fibroids = test: Oral efficacy studies of CDB-4124, 25 mg then 50 mg; type: in vivo, human
Method: as §1

[4] = Pharmacokinetics of vaginal pullulan capsules with 12 mg CDB-4124 in women; type: in vivo, human
Method: as §2

[5] = 12 mg intravaginally once daily for 10 days
[6] = 12 mg vaginal, pair-wise comparison of 6 women

COCC(=O)[C@@]1(OC(C)=O)CC[C@H]2[C@@H]3CCC4=CC(=O)CCC4=C3[C@@H](c3ccc(N(C)C)cc3)C[C@@]21C [CDB-4124, 21-methoxy-17α-acetoxy-11β-(4 N,N-dimethylaminophenyl)-19-norpregna-4,9-diene-3,20-dione]
External vaginal mucosa: erythema, edema ([1]; 12 mg CDB-4124 in pullulan capsule intravaginally once daily for 10 days): ⅖ rabbits showed very slight erythema and/or edema on 4 occasions
Gross findings in ovaries, uterus, three sections of the vagina [1, 5]: No gross findings
Histopathological findings [1, 5]: nor were any histopathological findings observed
Irritation index [1, 5]: none
Efficacy of the 1 mg oral dose ([2]; oral 1 mg): ineffective
Tolerability ([2]; oral 1, 3, 6, 9 and 12 mg for 10 weeks): all doses were well tolerated
Lowest dose inducing reliable cessation of menses ([2]; oral, 10 weeks): 3 mg
Cessation of menses, number of women ([3]; 12 mg vaginal once per day, 6 women): 3 women
Fibroid related condition ([3]; 12 mg vaginal, after only 4 weeks of treatment): significant improvements
Reduction in menstrual bleeding, Pictorial Blood Loss Assessment Chart (PBAC) [3, 6]: Statistical significance (p<0.05)
Reduction in overall uterine fibroid symptoms, Uterine Fibroid Symptom Quality of Life Survey (UFSQOL) [3, 6]: Statistical significance (p<0.05)
Fibroid size as share of the initial volume (uterine fibroids; escalated to 50 mg oral dose for an additional four months): approximately 25%
Reduction in mean fibroid size (uterine fibroids; oral 25 mg dose): ~50%
Fibroid symptoms as scored by UFSQOL (uterine fibroids; oral CDB-4124): symptom free
Drug peak after steady state ([4]; 12 mg vaginal once per day, women): no obvious drug peak
Systemic exposure relative to an equivalent oral dose, based on AUC ([4]; 12 mg vaginal versus 12 mg oral, women): about ⅙
Cmax compared with oral doses ([4]; 12 mg vaginal versus 1, 3, 6, 9, 12 mg oral, women): lower than any of the oral doses
Release profile from pullulan capsules ([4]; 12 mg vaginal, steady state, 24 hour period, women): continuous release of active agents at a substantially constant rate
Exposure compared with the 1 mg oral dose ([4]; 12 mg vaginal, women): only a fraction of the exposure of the ineffective 1 mg oral dose
Maximum exposure relative to the 50 mg oral dose ([4]; 12 mg vaginal, women): 1/100
Time to steady state concentration ([4]; women with uterine fibroids, 12 mg vaginal pullulan capsule once per day): one
